{"source": "patent US11311520B2", "about": "“Substituted dihydroimidazopyridinediones as MKNK1 and MKNK2 inhibitors” (Bayer Pharma Aktiengesellschaft, priority 2017, dated 2022)"}
{"target": "human full-length MKNK1 (Homo sapiens (Human), UniProt Q9BUB5, T344D)", "sequence (Q9BUB5 other isoform, or with tags, fused parts or gaps T344D)": "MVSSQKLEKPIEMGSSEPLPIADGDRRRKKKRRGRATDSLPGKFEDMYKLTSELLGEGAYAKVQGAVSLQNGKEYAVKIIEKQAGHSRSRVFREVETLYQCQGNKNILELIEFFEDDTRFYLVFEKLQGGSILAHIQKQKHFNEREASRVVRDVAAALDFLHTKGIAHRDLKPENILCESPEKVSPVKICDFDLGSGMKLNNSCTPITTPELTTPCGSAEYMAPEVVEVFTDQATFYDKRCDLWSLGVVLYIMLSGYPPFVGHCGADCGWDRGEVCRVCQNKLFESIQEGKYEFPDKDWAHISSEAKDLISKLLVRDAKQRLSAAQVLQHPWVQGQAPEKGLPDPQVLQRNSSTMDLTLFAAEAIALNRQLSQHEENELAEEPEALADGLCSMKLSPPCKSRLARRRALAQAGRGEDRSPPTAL", "experiment": "MKNK1 kinase high ATP assay (TR-FRET)", "format": "biochemical", "conditions": "2 mM ATP, 15 min preincubation with enzyme, GST-MKNK1 (T344D)", "protocol": "MKNK1 Kinase High ATP Assay\nMKNK1-inhibitory activity at high ATP of compounds of the present invention after their preincubation with MKNK1 was quantified employing the TR-FRET-based MKNK1 high ATP assay as described in the following paragraphs.\nA recombinant fusion protein of Glutathione-S-Transferase (GST, N-terminally) and human full-length MKNK1 (amino acids 1-424 and T344D of accession number BAA 19885.1), expressed in insect cells using baculovirus expression system and purified via glutathione sepharose affinity chromatography, was purchased from Carna Biosciences (product no 02-145) and used as enzyme. As substrate for the kinase reaction the biotinylated peptide biotin-Ahx-IKKRKLTRRKSLKG (SEQ ID NO: 1) (C-terminus in amide form) was used, which can be purchased e.g. from the company Biosyntan (Berlin-Buch, Germany)\nFor the assay 50 nL of a 100 fold concentrated solution of the test compound in DMSO was pipetted into a black low volume 384 well microtiter plate (Greiner Bio-One, Frickenhausen, Germany), 2 μL of a solution of MKNK1 in aqueous assay buffer [50 mM HEPES pH 7.5, 5 mM MgCl2, 1.0 mM dithiothreitol, 0.005% (v/v) Nonidet-P40 (Sigma)] was added and the mixture was incubated for […] at 22° C. to allow pre-binding of the test compounds to the enzyme before the start of the kinase reaction. Then the kinase reaction was started by the addition of 3 μL of a solution of adenosine-tri-phosphate (ATP, 3.3 mM=>final conc. in the 5 μL assay volume is 2 mM) and substrate (0.1 μM=>final conc. in the 5 μL assay volume is 0.06 μM) in assay buffer and the resulting mixture was incubated for a reaction time of 30 min at 22° C. The concentration of MKNK1 was adjusted depending of the activity of the enzyme lot and was chosen appropriate to have the assay in the linear range, typical concentrations were in the range of 0.003 μg/mL. The reaction was stopped by the addition of 5 μL of a solution of TR-FRET detection reagents (5 nM streptavidine-XL665 [Cisbio Bioassays, Codolet, France] and 1 nM anti-ribosomal protein S6 (pSer236)-antibody from Invitrogen [#44921G] and 1 nM LANCE EU-W1024 labeled ProteinG [Perkin-Elmer, product no. AD0071]) in an aqueous EDTA-solution (100 mM EDTA, 0.1% (w/v) bovine serum albumin in 50 mM HEPES pH 7.5).\nThe resulting mixture was incubated for 1 h at 22° C. to allow the formation of complex between the phosphorylated biotinylated peptide and the detection reagents. Subsequently the amount of phosphorylated substrate was evaluated by measurement of the resonance energy transfer from the Eu-chelate to the streptavidine-XL. Therefore, the fluorescence emissions at 620 nm and 665 nm after excitation at 350 nm were measured in a TR-FRET reader, e.g. a Rubystar (BMG Labtechnologies, Offenburg, Germany) or a Viewlux (Perkin-Elmer). The ratio of the emissions at 665 nm and at […] was taken as the measure for the amount of phosphorylated substrate. The data were normalised (enzyme reaction without inhibitor=0% inhibition, all other assay components but no enzyme=100% inhibition).", "units": {"IC50": "nM"}}
{"molecule": "Cc1cc(Nc2ncnc3c2ncn3CC(C)O)c(=O)n2c1C(=O)NC21CCCCC1", "note": "(racemic) [Example 39, (RS)-6′-{[9-(2-Hydroxypropyl)-9H-purin-6-yl]amino}-8′-methyl-2′H-spiro[cyclohexane-1,3′-imidazo[1,5-a]pyridine]-1′,5′-dione]", "IC50": 744}
{"molecule": "Cc1cc(Nc2ncnc(NC(=O)C3CC3)n2)c(=O)n2c1C(=O)NC21CCCCC1", "note": "[Example 1, N-{4-[(8′-Methyl-1′,5′-dioxo-1′,5′-dihydro-2′H-spiro[cyclohexane-1,3′-imidazo[1,5-a]pyridin]-6′-yl)amino]-1,3,5-triazin-2-yl}cyclopropanecarboxamide]", "IC50": 2.5}
{"molecule": "Cc1cc(Nc2ncnc(N)n2)c(=O)n2c1C(=O)NC21CCCCC1", "note": "[Example 2, 6′-[(4-Amino-1,3,5-triazin-2-yl)amino]-8′-methyl-2′H-spiro[cyclohexane-1,3′-imidazo[1,5-a]pyridine]-1′,5′-dione]", "IC50": 6.4}
{"molecule": "CCCNC(=O)Nc1ncnc(Nc2cc(C)c3n(c2=O)C2(CCCCC2)NC3=O)n1", "note": "[Example 3, 1-{4-[(8′-Methyl-1′,5′-dioxo-1′,5′-dihydro-2′H-spiro[cyclohexane-1,3′-imidazo[1,5-a]pyridin]-6′-yl)amino]-1,3,5-triazin-2-yl}-3-propylurea]", "IC50": 18.8}
{"molecule": "Cc1cc(Nc2ccnc3ccccc23)c(=O)n2c1C(=O)NC21CCCCC1", "note": "[Example 4, 8′-Methyl-6′-(quinolin-4-ylamino)-2′H-spiro[cyclohexane-1,3′-imidazo[1,5-a]pyridine]-1′,5′-dione]", "IC50": 306}
{"molecule": "Cc1cc(Nc2ncnc3sccc23)c(=O)n2c1C(=O)NC21CCCCC1", "note": "[Example 5, 8′-Methyl-6′-(thieno[2,3-d]pyrimidin-4-ylamino)-2′H-spiro[cyclohexane-1,3′-imidazo[1,5-a]pyridine]-1′,5′-dione]", "IC50": 6.4}
{"molecule": "Cc1cc(Nc2ncnc3[nH]ccc23)c(=O)n2c1C(=O)NC21CCCCC1", "note": "[Example 6, 8′-Methyl-6′-(7H-pyrrolo[2,3-d]pyrimidin-4-ylamino)-2′H-spiro[cyclohexane-1,3′-imidazo[1,5-a]pyridine]-1′,5′-dione]", "IC50": 0.3}
{"molecule": "Cc1cc(Nc2ncnc3[nH]ncc23)c(=O)n2c1C(=O)NC21CCCCC1", "note": "[Example 7, 8′-Methyl-6′-(1H-pyrazolo[3,4-d]pyrimidin-4-ylamino)-2′H-spiro[cyclohexane-1,3′-imidazo[1,5-a]pyridine]-1′,5′-dione]", "IC50": 2}
{"molecule": "Cc1cc(Nc2ncnc3ccccc23)c(=O)n2c1C(=O)NC21CCCCC1", "note": "[Example 8, 8′-Methyl-6′-(quinazolin-4-ylamino)-2′H-spiro[cyclohexane-1,3′-imidazo[1,5-a]pyridine]-1′,5′-dione]", "IC50": 28.3}
{"molecule": "Cc1cc(Nc2ncnc3sc(C(=O)O)cc23)c(=O)n2c1C(=O)NC21CCCCC1", "note": "[Example 9, 4-[(8′-Methyl-1′,5′-dioxo-1′,5′-dihydro-2′H-spiro[cyclohexane-1,3′-imidazo[1,5-a]pyridin]-6′-yl)amino]thieno[2,3-d]pyrimidine-6-carboxylic acid]", "IC50": 82.6}
{"molecule": "Cc1cc(Nc2ncnc3sc(C(=O)N(C)C)cc23)c(=O)n2c1C(=O)NC21CCCCC1", "note": "[Example 10, N,N-Dimethyl-4-[(8′-methyl-1′,5′-dioxo-1′,5′-dihydro-2′H-spiro[cyclohexane-1,3′-imidazo[1,5-a]pyridin]-6′-yl)amino]thieno[2,3-d]pyrimidine-6-carboxamide]", "IC50": 17.1}
{"molecule": "COCCN(C)C(=O)c1cc2c(Nc3cc(C)c4n(c3=O)C3(CCCCC3)NC4=O)ncnc2s1", "note": "[Example 11, N-(2-Methoxyethy)-N-methyl-4-[(8′-methyl-1′,5′-dioxo-1′,5′-dihydro-2′H-spiro[cyclohexane-1,3′-imidazo[1,5-a]pyridin]-6′-yl)amino]thieno[2,3-d]pyrimidine-6-carboxamide]", "IC50": 36.9}
{"molecule": "Cc1cc(Nc2ncnc3sc(C(=O)N4CCN(C)CC4)cc23)c(=O)n2c1C(=O)NC21CCCCC1", "note": "[Example 12, 8′-Methyl-6′-({6-[(4-methylpiperazin-1-yl)carbonyl]thieno[2,3-d]pyrimidin-4-yl}amino)-2′H-spiro[cyclohexane-1,3′-imidazo[1,5-a]pyridine]-1′,5′-dione]", "IC50": 27.2}
{"molecule": "Cc1cc(Nc2ncnc3sc(C(=O)N(C)CCN(C)C)cc23)c(=O)n2c1C(=O)NC21CCCCC1", "note": "[Example 13, N-[2-(Dimethylamino)ethyl]-N-methyl-4-[(8′-methyl-1′,5′-dioxo-1′,5′-dihydro-2′H-spiro[cyclohexane-1,3′-imidazo[1,5-a]pyridin]-6′-yl)amino]thieno[2,3-d]pyrimidine-6-carboxamide]", "IC50": 5.2}
{"molecule": "Cc1cc(Nc2ncnc3sc(C(=O)N4CCC(N(C)C)CC4)cc23)c(=O)n2c1C(=O)NC21CCCCC1", "note": "[Example 14, 6′-[(6-{[4-(Dimethylamino)piperidin-1-yl]carbonyl}thieno[2,3-d]pyrimidin-4-yl)amino]-8′-methyl-2′H-spiro[cyclohexane-1,3′-imidazo[1,5-a]pyridine]-1′,5′-dione]", "IC50": 4.1}
{"molecule": "Cc1cc(Nc2ncnc3sc(C(=O)O)c(C)c23)c(=O)n2c1C(=O)NC21CCCCC1", "note": "[Example 15, 5-Methyl-4-[(8′-methyl-1′,5′-dioxo-1′,5′-dihydro-2′H-spiro[cyclohexane-1,3′-imidazo[1,5-a]pyridin]-6′-yl)amino]thieno[2,3-d]pyrimidine-6-carboxylic acid]", "IC50": 21.3}
{"molecule": "Cc1cc(Nc2ncnc3sc(C(=O)N(C)C)c(C)c23)c(=O)n2c1C(=O)NC21CCCCC1", "note": "[Example 16, N,N,5-trimethyl-4-[(8′-methyl-1′,5′-dioxo-1′,5′-dihydro-2′H-spiro[cyclohexane-1,3′-imidazo[1,5-a]pyridin]-6′-yl)amino]thieno[2,3-d]pyrimidine-6-carboxamide]", "IC50": 66.7}
{"molecule": "Cc1cc(Nc2ncnc3sc(C(=O)N(C)CCN(C)C)c(C)c23)c(=O)n2c1C(=O)NC21CCCCC1", "note": "[Example 17, N-[2-(dimethylamino)ethyl]-N,5-dimethyl-4-[(8′-methyl-1′,5′-dioxo-1′,5′-dihydro-2′H-spiro[cyclohexane-1,3′-imidazo[1,5-a]pyridin]-6′-yl)amino]thieno[2,3-d]pyrimidine-6-carboxamide]", "IC50": 40.3}
{"molecule": "COCCN(C)C(=O)c1sc2ncnc(Nc3cc(C)c4n(c3=O)C3(CCCCC3)NC4=O)c2c1C", "note": "[Example 18, N-(2-methoxyethyl)-N,5-dimethyl-4-[(8′-methyl-1′,5′-dioxo-1′,5′-dihydro-2′H-spiro[cyclohexane-1,3′-imidazo[1,5-a]pyridin]-6′-yl)amino]thieno[2,3-d]pyrimidine-6-carboxamide]", "IC50": 105}
{"molecule": "Cc1cc(Nc2ncnc3sc(C(=O)N4CCN(C)CC4)c(C)c23)c(=O)n2c1C(=O)NC21CCCCC1", "note": "[Example 19, 8′-methyl-6′-({5-methyl-6-[(4-methylpiperazin-1-yl)carbonyl]thieno[2,3-d]pyrimidin-4-yl}amino)-2′H-spiro[cyclohexane-1,3′-imidazo[1,5-a]pyridine]-1′,5′-dione]", "IC50": 34.2}
{"molecule": "Cc1cc(Nc2ncnc3sc(C(=O)N4CCC(N(C)C)CC4)c(C)c23)c(=O)n2c1C(=O)NC21CCCCC1", "note": "[Example 20, 6′-[(6-{[4-(Dimethylamino)piperidin-1-yl]carbonyl}-5-methylthieno[2,3-d]pyrimidin-4-yl)amino]-8′-methyl-2′H-spiro[cyclohexane-1,3′-imidazo[1,5-a]pyridine]-1′,5′-dione]", "IC50": 35.2}
{"molecule": "Cc1cc(Nc2ccnc(N)n2)c(=O)n2c1C(=O)NC21CCCCC1", "note": "[Example 21, 6′-[(2-Aminopyrimidin-4-yl)amino]-8′-methyl-2′H-spiro[cyclohexane-1,3′-imidazo[1,5-a]pyridine]-1′,5′-dione]", "IC50": 339}
{"molecule": "Cc1cc(Nc2ccnc3[nH]ccc23)c(=O)n2c1C(=O)NC21CCCCC1", "note": "[Example 22, 8′-Methyl-6′-(1H-pyrrolo[2,3-b]pyridin-4-ylamino)-2′H-spiro[cyclohexane-1,3′-imidazo[1,5-a]pyridine]-1′,5′-dione]", "IC50": 12.3}
